Source: US12479803B2, “Antimalarial compounds” (UNIVERSITY OF CENTRAL FLORIDA RESEARCH FOUNDATION, INC., priority 2019, dated 2025)
Read-outs that look alike come from different tables or passages of the source.

Test system: CQ-resistant (Dd2) strain of P. falciparum
Test: In vitro antiplasmodial activity, SYBR Green I fluorescence assay, Dd2 strain
Format: cell-based, Plasmodium falciparum
Protocol: A set of 104 new styrylquinoline derivatives were synthesized and investigated for in vitro their antimalarial activity. To test antimalarial activities, different dilutions of compounds were added to P. falciparum culture. Following 72 h incubation at 37° C. in an atmosphere containing 5% CO2, the inhibitory property of the compounds were determined by SYBR Green I fluorescence assay. Meanwhile, SARs studies were conducted.
The SAR studies were focused on improving the in vitro activity of 2-arylvinylquinolines against the CQ-resistant Pf Dd2 strain.

[1] = CQ-resistant (Dd2) strain, 72 h incubation, read-out: EC50 (nmol)

SMILES	EC50 [1]	EC50 (Dd2 strain, read-out: EC50)	other results
Fc1ccc(/C=C/c2cc(NCCCCN3CCOCC3)c3cc(Cl)ccc3n2)cn1 [Compound 110]	0.0546 ± 0.0165 µM	–	IC50 (Dd2 strain): 0.0546 ± 0.0165 µM
COc1ccc(/C=C/c2cc(NCCN(C)C)c3cc(F)ccc3n2)cc1 [Compound 19]	0.0378 ± 0.0087 µM	–	–
Fc1ccc(/C=C/c2cc(N3CCOCC3)c3cc(Cl)ccc3n2)cc1 [Compound 62]	6.75 ± 1.08 µM	–	–
CN1CCN(CCNc2cc(/C=C/c3ccncc3)nc3ccc(Cl)cc23)CC1 [Compound 87]	0.0533 ± 0.0085 µM	–	–
Fc1ccc(/C=C/c2cc(N3CCCC3)c3cc(Cl)ccc3n2)cc1 [Compound 65]	0.428 ± 0.015 µM	–	–
Clc1ccc2nc(/C=C/c3ccncc3)cc(N3CCCC3)c2c1 [Compound 66]	1.19 ± 0.175 µM	–	–
FC(F)(F)c1ccccc1/C=C/c1cc(NCCCCN2CCOCC2)c2cc(Cl)ccc2n1 [Compound 99]	–	0.104 ± 0.0072 µM	–
COc1ccc(/C=C/c2cc(NCCN(C)C)c3cc(F)ccc3n2)cc1OC [Compound 20]	0.0411 ± 0.0006 µM	–	–
Clc1ccc2nc(/C=C/c3ccncc3)cc(NCCN3CCCC3)c2c1 [Compound 85]	0.0677 ± 0.0116 µM	–	–
COc1ccc2nc(/C=C/c3cc(OC)c(OC)c(OC)c3)cc(NCCN(C)C)c2c1 [Compound 14]	0.0742 ± 0.0088 µM	–	–
CN(C)CCCCNc1cc(/C=C/c2ccccc2)nc2ccc(Cl)cc12 [Compound 35]	0.068 ± 0.009 µM	–	–
CN(C)CCNc1cc(/C=C/c2ccccc2)nc2ccccc12 [Compound 32]	–	0.0807 ± 0.0224 µM	–
CN(C)CCNc1cc(/C=C/c2nccs2)nc2ccc(Cl)cc12 [Compound 49]	0.24 ± 0.0306 µM	–	–
Clc1ccc2nc(/C=C/c3ccncc3)cc(Nc3ccc(N4CCCCC4)cc3)c2c1 [Compound 70]	0.793 ± 0.0813 µM	–	–
Clc1ccc2nc(/C=C/c3ccncc3)cc(N3CCOCC3)c2c1 [Compound 63]	3.59 ± 0.87 µM	–	–
CN(C)CCNc1cc(/C=C/c2ccncc2)nc2ccc(F)cc12 [Compound 46]	0.0361 ± 0.0021 µM	–	–
Clc1ccc2nc(/C=C/C=C/c3ccccc3)cc(NCCCCN3CCOCC3)c2c1 [Compound 114]	0.143 ± 0.0186 µM	–	–
CN(C)CCNc1cc(/C=C/c2ccc([N+](=O)[O-])cc2)nc2ccc(F)cc12 [Compound 17]	0.0309 ± 0.0059 µM	–	–
COc1cc(/C=C/c2cc(NCCN(C)C)c3cc(F)ccc3n2)cc(OC)c1OC [Compound 21]	–	0.0386 ± 0.0018 µM	–
N#Cc1ccc(/C=C/c2cc(N3CCOCC3)c3cc(Cl)ccc3n2)cc1 [Compound 64]	1.01 ± 0.0842 µM	> 1 µM	–
Fc1cc(F)c(F)c(/C=C/c2cc(NCCCCN3CCOCC3)c3cc(Cl)ccc3n2)c1 [Compound 106]	0.588 ± 0.256 µM	–	–

SMILES	EC50 [1]	EC50 (Dd2 strain, read-out: EC50)	other results
CN(C)CCNc1cc(/C=C/c2ccccc2)nc2ccc(Cl)cc12 [Compound 22]	0.0224 ± 0.002 µM	–	–
CN(C)CCCCNc1cc(/C=C/c2ccc([N+](=O)[O-])cc2)nc2ccc(Cl)cc12 [Compound 36]	0.0525 ± 0.002 µM	–	–
CN(C)CCNc1cc(/C=C/c2ccco2)nc2ccc(Cl)cc12 [Compound 47]	–	0.037 ± 0.0043 µM	–
CN(C)CCNc1cc(/C=C/c2ccccc2)nc2ccc(F)cc12 [Compound 16]	–	0.021 ± 0.0021 µM	–
COc1ccc2nc(/C=C/c3ccc([N+](=O)[O-])cc3)cc(NCCN(C)C)c2c1 [Compound 9]	–	0.0286 ± 0.0009 µM	–
Fc1ccc(/C=C/c2cc(NCCN3CCCC3)c3cc(Cl)ccc3n2)cc1 [Compound 83]	0.0923 ± 0.0058 µM	–	–
COc1ccc2nc(/C=C/c3cccc([N+](=O)[O-])c3)cc(NCCN(C)C)c2c1 [Compound 11]	–	0.0495 ± 0.004 µM	–
CN1CCN(CCCCNc2cc(/C=C/c3ccc(F)cc3)nc3ccc(Cl)cc23)CC1 [Compound 95]	0.043 ± 0.0075 µM	–	–
Clc1ccc2nc(-c3ccccc3)cc(NCCCCN3CCOCC3)c2c1 [Compound 119]	0.423 ± 0.0627 µM	–	–
COc1ccc2nc(/C=C/c3cccs3)cc(NCCN(C)C)c2c1 [Compound 40]	0.08 ± 0.007 µM	–	–
COc1ccc2nc(CCc3ccncc3)cc(NCCN(C)C)c2c1 [Compound 58]	–	0.709 ± 0.0582 µM	–
COc1cc(/C=C/c2cc(NCCN(C)C)c3cc(Cl)ccc3n2)cc(OC)c1OC [Compound 27]	0.0444 ± 0.0036 µM	–	–
FC(F)(F)c1cc(/C=C/c2cc(NCCCCN3CCOCC3)c3cc(Cl)ccc3n2)cc(C(F)(F)F)c1 [Compound 102]	0.108 ± 0.008 µM	–	–
Clc1ccc2nc(/C=C/c3ccncc3)cc(NCCN3CCOCC3)c2c1 [Compound 82]	0.137 ± 0.0146 µM	–	–
COc1ccc2nc(/C=C/c3cc(NCCN(C)C)c4cc(Cl)ccc4n3)ccc2c1 [Compound 55]	–	0.281 ± 0.0403 µM	–
Fc1cccnc1/C=C/c1cc(NCCCCN2CCOCC2)c2cc(Cl)ccc2n1 [Compound 112]	–	0.197 ± 0.0165 µM	–
Cc1cc(NCCN(C)C)c2cc(Cl)ccc2n1 [Compound 6c]	0.732 ± 0.107 µM	–	EC50 (Dd2 strain): inactive
COc1ccc2nc(/C=C/c3ccccc3)cc(NCCN(C)C)c2c1 [Compound 8]	–	0.0412 ± 0.0053 µM	–
CN(C)CCNc1cc(/C=C/c2cccc3ccccc23)nc2ccc(Cl)cc12 [Compound 56]	0.373 ± 0.019 µM	–	–
Fc1cnccc1/C=C/c1cc(NCCCCN2CCOCC2)c2cc(Cl)ccc2n1 [Compound 109]	–	0.0796 ± 0.0118 µM	–
Fc1ccc(/C=C/c2cc(NCCCN3CCOCC3)c3cc(Cl)ccc3n2)cc1 [Compound 90]	0.0408 ± 0.0056 µM	–	–
